Data as given in US5198427A, “Natural intense sweeteners” (Research Corporation Technologies, Inc., priority 1990, dated 1993).
Where two headings read alike, the source gives them in different places.

Assays:
[1] = Acute toxicity in mice, single oral dose; type: in vivo, male Swiss-Webster mice; conditions: for Average body weight of test animals, Day 0 / Average body weight of test animals, Day 1 / Average body weight of test animals, Day 3 / Average body weight of test animals, Day 7 / Average body weight of test animals, Day 14: 1 g/kg oral intubation; for Average body weight of test animals, Day 0: day 0 (prior to administration); for t (body weight, test vs control), Day 0 / t (body weight, test vs control), Day 1 / t (body weight, test vs control), Day 3 / t (body weight, test vs control), Day 7 / t (body weight, test vs control), Day 14: 1 g/kg oral, 0.95 confidence
Method: The sweet isolates, abrusosides A-D, are each tested for acute toxicity in mice. Experiments are carried out with male Swiss-Webster mice (6-8 weeks old), that are housed in temperature-controlled rooms with a 12-hr light/dark cycle, and allowed free access to water and food. After acclimatization for three days, groups of 10 animals receive a single 1 g/kg body weight dose of either abrusoside A, B, C, or D by oral intubation. Test materials are suspended in 1% aqueous sodium carboxymethylcellulose. A control group treated with only 1% sodium caroboxymethylcellulose is also included in the experiment. In all experiments, no incidence of mortality occurred for up to 14 days after dosing. Animals are examined for body weight variations on days 0 (prior to administration), 1, 3, 7, and 14. Body weight variations between treated and control groups are analyzed by one-way analysis of variance using an appropriate computer program. It may be seen from these tables that no significant differences in body weight variation occurred between each of the four test compounds and the controls, when assessed for a fourteen day period following compound administration.

[2] = tested on: Salmonella typhimurium strain TM677; type: cell-based; conditions: DMSO
Method: Salmonella typhimurium strain TM677, carrying the "R-factor" plasmid pKM101, is used for the assessment of mutagenic activity. Mutagenic assays are conducted on abrusosides A, B, C, and D, both in the absence and presence of a metabolic activating agent, obtained from a 9,000 × g supernatant fraction from the livers of […] rats. The following protocols are used in this procedure.
Male Sprague-Dawley rats (body weight 100-120 g) were housed in air-conditioned quarters, with a 12 hr/12 hr light-dark cycle, and are given food and water ad libitum. The rats (groups of 10) are given single intraperitoneal injections of Aroclor 1254 (400 mg/kg) in corn oil. Four days after the treatment with Aroclor 1254, the rats are sacrificed by decapitation. Their livers are immediately excised, rinsed several times with cold 0.14 M NaCl, minced, and homogenized with 3 volumes (v/w) of 50 mM Tris HCl, pH 5, containing 0.14 M KCl, using a glass homogenizing vessel and a motor-driven Teflon pestle. The homogenate is filtered through cheese-cloth, and centrifuged at 9,000 g for 20 minutes to yield an S-9 fraction. The isolation procedures described above are conducted at 0°-4° C., and the isolated S-9 fraction is stored in small aliquots in liquid nitrogen.
Duplicate 0.98-ml reaction mixtures containing 0.1 mg of NADP^+, 1.0 mg of glucose-6-phosphate, 0.8 units of glucose-6-phosphate dehydrogenase, 0.67 mg of MgCl2, the S-9 fraction, and approximately 7×10^6 bacteria in logarithmic phase, are prepared in minimal essential medium. When metabolic activation is not required, only bacteria and minimal essential medium are mixed.
After addition of each test substance dissolved in 20 ul of DMSO, the mixtures are slowly rotated at 37° C. for 2 hours. Each reaction mixture is then quenched by addition of 4 ml phosphate-buffered saline. The bacteria are recovered by centrifugation, resuspended, diluted as appropriate, and plated, in triplicate, in the presence or absence of 8-azaguanine. Plates are scored […] on plates containing 8-azaguanine divided by the average number of plates not containing azaguanine, after correcting for dilution factors. The latter value is used to define the percentage of bacteria surviving the treatment, relative to a control in which only an equivalent amount of solvent had been added.
The spontaneous mutant fraction for this assay is 7.4±5×10^-5 (n=145). A compound is said to cause significant mutation if the induced mutant fraction is greater than or equal to two times the spontaneous mutant fraction.

[3] = Sensory evaluation by human taste panel; conditions: for Sweetness relative to a 2% aqueous solution of sucrose: ammonium salts, in water, human taste panel; for Sweetness relative to 2% sucrose: three-person panel, dilute ammonium hydroxide solution diluted with water
Method: Abrusoside A (4 mg) is dissolved in 0.033N ammonium hydroxide solution (0.2 ml), to which is added 1.8 ml of water to yield the equivalent of a 0.2 % w/v solution of abrusoside A. Aliquots (0.2 ml) of this solution are diluted with 0.4, 0.8, 1.3, and 1.8 ml water, respectively. The diluted solutions is tasted sequentially, in order to judge the intensity of sweetness equivalent to that of a 2% w/v aqueous sucrose solution. Similar procedures are used in the sensory evaluation of […], expect that the concentrations of the ammonium hydroxide solutions used are 0.05N for abrusosides B and C, and 0.025N for abrusoside D. These sensory experiments are performed by a small panel consisting of three persons.

[4] = cited from earlier work
[5] = 2.5 mg/ml, activating system none
[6] = 5.0 mg/ml, activating system none

Row | Compound | Average body weight of test animals, Day 0 [1] | Average body weight of test animals, Day 1 [1] | Average body weight of test animals, Day 3 [1] | Average body weight of test animals, Day 7 [1] | Average body weight of test animals, Day 14 [1] | t (body weight, test vs control), Day 0 [1] | t (body weight, test vs control), Day 1 [1] | t (body weight, test vs control), Day 3 [1] | t (body weight, test vs control), Day 7 [1] | t (body weight, test vs control), Day 14 [1] | % Survival ([2]; 2.5 mg/ml, Aroclor S-9) | Mutant Fraction ([2]; 2.5 mg/ml, Aroclor S-9) | % Survival [2, 5] | Mutant Fraction [2, 5] | % Survival ([2]; 5.0 mg/ml, Aroclor S-9) | Mutant Fraction ([2]; 5.0 mg/ml, Aroclor S-9) | % Survival [2, 6] | Mutant Fraction [2, 6] | Sweetness relative to a 2% aqueous solution of sucrose [3] | Sweetness relative to 2% sucrose [3] | other results
1 | CC1=CC[C@@H]([C@@H](C)[C@H]2CC[C@@]3(C)[C@@H]4CC[C@H]5[C@](C)(C(=O)O)[C@@H](O[C@@H]6O[C@H](CO)[C@@H](O)[C@H](O)[C@H]6O)CC[C@@]56C[C@@]46CC[C@]23C)OC1=O [Abrusoside A] | 23.4 g | 23.7 g | 24.4 g | 25.4 g | 26.1 g | 0.292 | 0.153 | 0.368 | 0.000 | 0.000 | 100% | 8.1 × 10^5 | 100% | 7.9 × 10^5 | 100% | 7.3 × 10^5 | 100% | 8.1 × 10^5 | 30 x | 30 times | –
2 | Abrusoside D | 24.1 g | 24.4 g | 24.9 g | 25.7 g | 27.0 g | 1.199 | 1.140 | 0.991 | 0.383 | 0.812 | 100% | 11.8 × 10^5 | 100% | 16.7 × 10^5 | 100% | 11.0 × 10^5 | 100% | 15.3 × 10^5 | 75 x | 75 times | Duration of lingering sweetness ([3]; 0.04% w/v): about 30 minutes
3 | COC(=O)[C@H]1O[C@@H](O[C@H]2[C@H](O[C@H]3CC[C@]45C[C@]46CC[C@]4(C)[C@@H]([C@H](C)[C@@H]7CC=C(C)C(=O)O7)CC[C@@]4(C)[C@@H]6CC[C@H]5[C@]3(C)C(=O)O)O[C@H](CO)[C@@H](O)[C@@H]2O)[C@H](O)[C@@H](O)[C@@H]1O [Abrusoside B] | 23.5 g | 23.7 g | 23.9 g | 25.0 g | 26.4 g | 0.432 | 0.330 | 0.458 | 0.576 | 0.282 | 100% | 7.2 × 10^5 | 100% | 8.7 × 10^5 | 100% | 8.2 × 10^5 | 100% | 7.3 × 10^5 | 100 x | 100 times | –
4 | CC1(C)[C@@H](O[C@H]2O[C@H](C(=O)O)[C@@H](O)[C@H](O)[C@H]2O[C@@H]2O[C@H](C(=O)O)[C@@H](O)[C@H](O)[C@H]2O)CC[C@]2(C)[C@H]3C(=O)C=C4[C@@H]5C[C@@](C)(C(=O)O)CC[C@]5(C)CC[C@@]4(C)[C@]3(C)CC[C@@H]12 [Glycyrrhizin] | – | – | – | – | – | – | – | – | – | – | – | – | – | – | – | – | – | – | – | – | Retention of sodium, chlorine and water ([4]; humans): can cause abnormal retention of sodium, chlorine and water in humans; Adrenocorticomimetic activity ([4]; mimics the effects of the adrenal cortex): known adrenocorticomimetic activity
5 | CC1=CC[C@@H]([C@@H](C)[C@H]2CC[C@@]3(C)[C@@H]4CC[C@H]5[C@](C)(C(=O)O)[C@@H](O[C@@H]6O[C@H](CO)[C@@H](O)[C@H](O)[C@H]6O[C@@H]6O[C@H](CO)[C@@H](O)[C@H](O)[C@H]6O)CC[C@@]56C[C@@]46CC[C@]23C)OC1=O [Abrusoside C] | 23.4 g | 23.8 g | 24.3 g | 25.3 g | 26.9 g | 0.282 | 0.371 | 0.302 | 0.129 | 0.930 | 100% | 7.7 × 10^5 | 100% | 8.1 × 10^5 | 100% | 6.7 × 10^5 | 100% | 7.6 × 10^5 | 50 x | 50 times | –
